These results are taken from US8058475B2, “Substituted cyclohexylmethyl compounds” (Gruenenthal GmbH, priority 2005, dated 2011).

Where a name gives a salt, the structure may show the parent alone. Read-outs that look alike come from different tables or passages of the source.

The target in assay [1] is human μ-opiate receptor (Homo sapiens, UniProt P35372). Briefly: Affinity for the human μ-opiate receptor ([3H]-naloxone displacement, SPA, CHO-K1 membrane preparation). The note with it: for inhibition at 1 µM: read-out: μ-Opioid receptor, % inhibition [1 μM]; for Ki: read-out: μ-Opioid receptor, Ki. In kind it is binding.
Assay [2] concerns the target T1, Noradrenaline (NA) reuptake (Rattus norvegicus, UniProt Q63380).
T1 construct: synaptosomes are freshly isolated from areas of rat brain; from tissue; host or cells: rat hypothalamus synaptosomes (P2 fraction)
Briefly: Noradrenaline (NA) reuptake inhibition in rat brain synaptosomes (hypothalamus, P2 fraction). In kind it is biochemical. The source says: (§1) Noradrenaline (NA) and Serotonin (5HT) Reuptake Inhibition
(§2) In order to be able to carry out these studies in vitro, synaptosomes are freshly isolated from areas of rat brain. A so-called “P2” fraction prepared by the method of Gray and Whittaker (E. G. Gray and V. P. Whittaker (1962) J. Anat. 76, 79-88) is used in each case. For the NA uptake, these vesicular particles are isolated from the hypothalamus of male rat brains.
(§3) A detailed description of the method will be found in the literature (M. Ch. Frink, H. H. Hennies, W. Englberger, M. Haurand and B. Wilffert (1996) Arzneim.-Forsch./Drug Res. 46 (III), 11, 1029-1036).

For assay [3], the target named is T2, Serotonin (5HT) reuptake (Rattus norvegicus, UniProt P31652).
T2 construct: synaptosomes are freshly isolated from areas of rat brain; from tissue; host or cells: rat brain synaptosomes (P2 fraction)
Briefly: Serotonin (5HT) reuptake inhibition in rat brain synaptosomes (P2 fraction). In kind it is biochemical. The note with it: for inhibition at 10 µM: read-out: Serotonin reuptake, % inhibition [10 μM].
Excerpt: as §1, §2, §3

Where [4] appears, read: 1 μM test substance, inhibition of specific [3H]-naloxone binding.
The mark [5] stands for this setting: read-out: NA reuptake, % inhibition [10 μM].
Setting [6] is: read-out: Na reuptake, % inhibition [10 μM].

The inhibition is the change of the read-out against control, counted positive when it falls. In general, Ki refers to the dissociation constant of the complex between target and ligand, obtained from inhibition or displacement.

T1 sequence (Q63380 1-617): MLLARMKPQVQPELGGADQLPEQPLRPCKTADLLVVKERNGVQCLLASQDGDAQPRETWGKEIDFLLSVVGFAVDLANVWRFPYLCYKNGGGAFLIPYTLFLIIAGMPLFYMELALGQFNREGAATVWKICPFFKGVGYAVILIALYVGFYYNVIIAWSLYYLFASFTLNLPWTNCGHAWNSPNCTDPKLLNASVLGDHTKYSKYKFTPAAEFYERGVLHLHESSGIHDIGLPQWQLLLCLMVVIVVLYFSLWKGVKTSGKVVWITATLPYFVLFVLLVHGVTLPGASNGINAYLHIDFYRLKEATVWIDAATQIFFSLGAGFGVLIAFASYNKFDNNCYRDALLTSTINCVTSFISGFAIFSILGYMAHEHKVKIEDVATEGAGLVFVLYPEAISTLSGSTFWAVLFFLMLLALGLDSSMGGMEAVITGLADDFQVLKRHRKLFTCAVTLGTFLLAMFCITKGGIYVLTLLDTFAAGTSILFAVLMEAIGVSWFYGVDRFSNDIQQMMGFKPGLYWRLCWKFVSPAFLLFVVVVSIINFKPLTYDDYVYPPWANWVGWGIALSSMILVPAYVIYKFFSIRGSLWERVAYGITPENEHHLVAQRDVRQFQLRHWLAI
Chain of human μ-opiate receptor (P35372 whole entry): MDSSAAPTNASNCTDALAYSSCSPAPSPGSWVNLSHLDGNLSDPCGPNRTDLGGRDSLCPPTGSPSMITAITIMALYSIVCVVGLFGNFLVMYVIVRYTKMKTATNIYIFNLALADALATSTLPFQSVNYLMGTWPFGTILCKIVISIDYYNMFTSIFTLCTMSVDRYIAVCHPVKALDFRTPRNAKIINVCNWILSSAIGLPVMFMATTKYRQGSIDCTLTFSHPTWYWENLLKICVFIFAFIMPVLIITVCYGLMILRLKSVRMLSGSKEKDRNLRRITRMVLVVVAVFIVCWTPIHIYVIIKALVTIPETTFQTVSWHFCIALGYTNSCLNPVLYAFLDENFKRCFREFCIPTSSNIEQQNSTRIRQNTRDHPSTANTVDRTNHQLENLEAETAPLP
T2 sequence (P31652 whole entry): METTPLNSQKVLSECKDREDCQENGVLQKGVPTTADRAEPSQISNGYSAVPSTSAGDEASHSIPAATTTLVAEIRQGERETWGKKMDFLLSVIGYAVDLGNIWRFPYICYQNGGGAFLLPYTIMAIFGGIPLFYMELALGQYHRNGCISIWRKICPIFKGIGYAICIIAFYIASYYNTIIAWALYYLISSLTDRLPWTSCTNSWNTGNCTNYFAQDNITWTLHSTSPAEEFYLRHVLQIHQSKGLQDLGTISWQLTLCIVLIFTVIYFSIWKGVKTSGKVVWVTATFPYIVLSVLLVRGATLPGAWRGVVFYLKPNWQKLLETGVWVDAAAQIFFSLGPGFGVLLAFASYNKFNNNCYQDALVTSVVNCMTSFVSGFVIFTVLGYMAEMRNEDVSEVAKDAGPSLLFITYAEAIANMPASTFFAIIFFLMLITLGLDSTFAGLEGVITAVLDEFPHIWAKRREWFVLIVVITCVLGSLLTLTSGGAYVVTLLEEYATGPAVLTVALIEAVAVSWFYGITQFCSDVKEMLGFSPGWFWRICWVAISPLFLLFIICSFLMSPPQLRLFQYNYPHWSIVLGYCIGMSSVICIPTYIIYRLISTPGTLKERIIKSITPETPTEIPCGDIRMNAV

`CCOC(=O)C=C1CCC(C(c2ccccc2)N(C)C)CC1` (centres unmarked) [compound 123, [4-(dimethylamino-phenyl-methyl)-cyclohexylidene]-acetic acid ethyl ester]: the inhibition at 1 µM in assay [1] (setting [4]) was 75%. In addition, the Ki in assay [1] came to 190 nM. Further, the inhibition at 10 µM in assay [2] (setting [5]) came out at 66%; in assay [3] it was 92%.

With `CN(C)C(c1ccccc1)C1CCC(C=O)CC1` (centres unmarked) [compound 28, 4-(Dimethylamino-phenyl-methyl)-cyclohexane-carbaldehyde], in assay [1] (setting [4]), the inhibition at 1 µM is 69%. The inhibition at 10 µM in assay [2] (setting [5]) was determined as 84%; in assay [3] it was 85%.

On to `CN(C)C(c1ccccc1)C1CCC(CO)CC1` (centres unmarked) [compound 117, [4-(dimethylamino-phenyl-methyl)-cyclohexyl]-methanol], for which, in assay [1] (setting [4]), the inhibition at 1 µM is 57%. The inhibition at 10 µM in assay [2] (setting [5]) came to 82%; in assay [3] it was 85%.

As for `CN(C)C(c1ccc(Cl)cc1)C1CCC(CCN)CC1` (centres unmarked) [compound 66, 2-{4-[dimethylamino-(4-chlorophenyl)-methyl]-cyclohexyl}-ethylamine], the inhibition at 1 µM in assay [1] (setting [4]) was 62%. The inhibition at 10 µM in assay [2] (setting [5]) and in assay [3] was 96% each time.

With `CN(C)C(c1ccccc1)C1CCC(NS(=O)(=O)c2ccc(C(C)(C)C)cc2)CC1` (centres unmarked) [compound 108, 4-tert-butyl-N-(4-((dimethylamino)(phenyl)methyl)cyclohexyl)benzene-sulfonamide hydrochloride], the inhibition at 1 µM in assay [1] (1 μM, sulfonamides (Table 17)) was found to be 92%. Also, the Ki in assay [1] (sulfonamides (Table 17)) turned out to be 22 nM. Besides, the inhibition at 10 µM in assay [2] (setting [5]) and in assay [3] was 75% in each case.

In the case of `CCC(CC)C(=O)NC1CCC(C(c2ccccc2)N(C)C)CC1` (centres unmarked) [compound 93, N-(4-((dimethylamino)(phenyl)methyl)cyclohexyl)-2-ethylbutanamide hydrochloride], in assay [1], the inhibition at 1 µM stood at 94%. The Ki is 94 nM in assay [1] and 660 nM in assay [3]. In addition, the inhibition at 10 µM was determined as 48% in assay [2] (setting [6]) and 75% in assay [3].

Turning to `CC(=O)N(c1ccccc1)C1CCC(C(c2ccccc2)N(C)C)CC1` (centres unmarked) [compound 96, N-(4-((dimethylamino)(phenyl)methyl)cyclohexyl)-N-phenylacetamide hydrochloride], in assay [1], the inhibition at 1 µM was 99%. The Ki in assay [1] came to 86 nM; in assay [2], 800 nM; in assay [3] it was 660 nM. Besides, the results for the inhibition at 10 µM in assay [2] (setting [6]) and in assay [3] were 88% and 83%, respectively.

Consider `O=C(C=C1CCC(C(Cc2ccccc2)N2CCCC2)CC1)NCc1ccccn1` (centres unmarked) [compound 495, 2-(4-(2-phenyl-1-(pyrrolidin-1-yl)ethyl)cyclohexylidene)-N-(pyridin-2-ylmethyl)acetamide], for which the inhibition at 10 µM in assay [2] (setting [5]) is 16%; in assay [3], 7%.

`CN(C)C(CCc1ccccc1)C1CCC(CN)CC1` (centres unmarked) [compound 45, [1-(4-aminomethyl-cyclohexyl)-3-phenyl-propyl]-dimethylamine]: the inhibition at 10 µM in assay [2] (setting [5]) amounted to 96%; in assay [3] it was 90%.

As for `CN(C)C(c1cccc(F)c1)C1CCC(CC=O)CC1` (centres unmarked) [compound 52, {4-[Dimethylamino-(3-fluorophenyl)-methyl]-cyclohexyl}-acetaldehyde], the inhibition at 10 µM in assay [2] (setting [5]) worked out at 96%; in assay [3], 94%.

On to `CCOC(=O)C=CC1CCC(C(CCc2ccccc2)N(C)C)CC1` (centres unmarked) [compound 141, 3-[4-(1-dimethylamino-3-phenyl-propyl)-cyclohexyl]-acrylic acid ethyl ester], for which the values for the inhibition at 10 µM in assay [2] (setting [5]) and in assay [3] were 98% and 83%, respectively.

As to `CCOC(=O)CCC1CCC(C(CCc2ccccc2)N(C)C)CC1` (centres unmarked) [compound 142, 3-[4-(1-dimethylamino-3-phenyl-propyl)-cyclohexyl]-propionic acid ethyl ester], the inhibition at 10 µM was found to be 99% in assay [2] (setting [5]) and 84% in assay [3].

For the compound `CN(C)C(c1ccc(F)cc1)C1CCC(CCN)CC1` (centres unmarked) [compound 51, 2-{4-[dimethylamino-(4-fluorophenyl)-methyl]-cyclohexyl}-ethylamine], the inhibition at 10 µM in assay [2] (setting [5]) came to 98%; in assay [3] it was 97%.

As to `COCc1noc(C(=O)NCCC2CCC(C(CCc3ccccc3)N(C)C)CC2)n1` (centres unmarked) [compound 501, 3-methoxymethyl-[1,2,4]oxadiazole-5-carboxylic acid {2-[4-(1-dimethylamino-3-phenyl-propyl)-cyclohexyl]-ethyl}-amide], the inhibition at 10 µM in assay [2] (setting [5]) came to 106%.

On to `Cc1noc(C(=O)NCCC2CCC(C(c3ccccc3)N(C)C)CC2)n1` (centres unmarked) [compound 498, 3-methyl-[1,2,4]oxadiazole-5-carboxylic acid {2-[4-(dimethylamino-phenyl-methyl)-cyclohexyl]-ethyl}-amide], for which, in assay [2] (setting [5]), the inhibition at 10 µM amounted to 99%.

Regarding `COc1cccc(NC(=O)CC2CCC(C(Cc3ccccc3)N3CCCC3)CC2)c1` (centres unmarked) [compound 492, N-(3-methoxyphenyl)-2-(4-(2-phenyl-1-(pyrrolidin-1-yl)ethyl)cyclohexyl)-acetamide], the values for the inhibition at 10 µM in assay [2] (setting [5]) and in assay [3] were 54% and 3%, respectively.

As for `Cc1ccc(C(C2CCC(=CC(=O)NCCc3ccccc3)CC2)N2CCCCC2)cc1` (centres unmarked) [compound 494, N-phenethyl-2-(4-(piperidin-1-yl(p-tolyl)methyl)cyclohexylidene)acetamide], the values for the inhibition at 10 µM in assay [2] (setting [5]) and in assay [3] were 81% and 40%, respectively.

For `CN(C)C(c1ccccc1)C1CCC(O)(Cc2ccccc2)CC1` (centres unmarked) [compound 147, 1-benzyl-4-((dimethylamino)(phenyl)methyl)cyclohexanol hydrochloride], the inhibition at 10 µM in assay [2] (setting [5]) amounted to 12%.

Consider `Cc1ccc(C(C2CCC(=CC(=O)N(C)Cc3ccccc3)CC2)N2CCCCC2)cc1` (centres unmarked) [compound 496, N-benzyl-N-methyl-2-(4-(piperidin-1-yl(p-tolyl)methyl)cyclohexylidene)-acetamide], for which the figures for the inhibition at 10 µM in assay [2] (setting [5]) and in assay [3] were 26% and 18%, respectively.

On to `CN(C)C(c1cccs1)C1CCC(C=O)CC1` (centres unmarked) [compound 40, 4-(Dimethylamino-thiophen-2-yl-methyl)-cyclohexanecarbaldehyde], for which the results for the inhibition at 10 µM in assay [2] (setting [5]) and in assay [3] were 77% and 78%, respectively.

On to `CN(C)C(c1ccc(F)cc1)C1CCC(CN)CC1` (centres unmarked) [compound 33, [(4-aminomethyl-cyclohexyl)-(4-fluorophenyl)-methyl]-dimethylamine], for which the inhibition at 10 µM in assay [2] (setting [5]) came out at 94%; in assay [3] it was 95%.

As for `CN(C)C(c1ccc(Cl)cc1)C1CCC(CC=O)CC1` (centres unmarked) [compound 55, {4-[(4-Chlorophenyl)-dimethylamino-methyl]-cyclohexyl}-acetaldehyde], the values for the inhibition at 10 µM in assay [2] (setting [5]) and in assay [3] were 95% and 88%, respectively.

As to `CN(C)C(c1ccc(Cl)cc1)C1CCC(C=O)CC1` (centres unmarked) [compound 37, 4-[(4-Chloro-phenyl)-dimethylamino-methyl]-cyclohexane-carbaldehyde], the inhibition at 10 µM in assay [2] (setting [5]) was 97%; in assay [3], 75%.

As to `CN(C)C(CCc1ccccc1)C1CCC(CCN)CC1` (centres unmarked) [compound 72, {1-[4-(2-amino-ethyl)-cyclohexyl]-3-phenyl-propyl}-dimethylamine], the inhibition at 10 µM in assay [2] (setting [5]) turned out to be 91%; in assay [3], 79%.

For `CN(C)C(c1ccccc1)C1CCC(NC(=O)c2nc(-c3cccs3)no2)CC1` (centres unmarked) [compound 497, 3-thiophen-2-yl-[1,2,4]oxadiazole-5-carboxylic acid [4-(dimethylamino-phenyl-methyl)-cyclohexyl]-amide], in assay [2] (setting [5]), the inhibition at 10 µM stood at 101%.

Take `CN(C)C(c1cccc(F)c1)C1CCC(NC(=O)c2nc(-c3ccccc3)no2)CC1` (centres unmarked) [compound 499, 3-phenyl-[1,2,4]oxadiazole-5-carboxylic acid {4-[dimethylamino-(3-fluoro-phenyl)-methyl]-cyclohexyl}-amide]: in assay [2] (setting [5]), the inhibition at 10 µM came out at 103%.

On to `COc1ccc(NC(=O)C=C2CCC(C(c3ccc(C)cc3)N3CCCCC3)CC2)cc1` (centres unmarked) [compound 493, N-(4-methoxyphenyl)-2-(4-(piperidin-1-yl(p-tolyl)methyl)cyclohexylidene)-acetamide], for which the inhibition at 10 µM in assay [2] (setting [5]) worked out at 27%; in assay [3] it was 38%.

Regarding `CN(C)C(CCc1ccccc1)C1CCC(N)CC1` (centres unmarked) [compound 27, 4-(1-dimethylamino-3-phenyl-propyl)-cyclohexylamine], the inhibition at 10 µM turned out to be 95% in assay [2] (setting [5]) and 78% in assay [3].

Turning to `CN(C)C(CCc1ccccc1)C1CCC(CC=O)CC1` (centres unmarked) [compound 70, [4-(1-Dimethylamino-3-phenyl-propyl)-cyclohexyl]-acetaldehyde], the inhibition at 10 µM in assay [2] (setting [5]) stood at 93%; in assay [3], 70%.

`CN(C)C(CCc1ccccc1)C1CCC(C=O)CC1` (centres unmarked) [compound 43, 4-(1-Dimethylamino-3-phenyl-propyl)-cyclohexane-carbaldehyde]: the values for the inhibition at 10 µM in assay [2] (setting [5]) and in assay [3] were 98% and 80%, respectively.

As for `CN(C)C(c1ccc(F)cc1)C1CCC(N)CC1` (centres unmarked) [compound 19, 4-[dimethylamino-(4-fluorophenyl)-methyl]-cyclohexylamine], the inhibition at 10 µM in assay [2] (setting [5]) worked out at 93%; in assay [3], 87%.
